Article PMC8509428, “The Phenoxyalkyltriazine Antagonists for 5-HT6 Receptor with Promising Procognitive and Pharmacokinetic Properties In Vivo in Search for a Novel Therapeutic Approach to Dementia Diseases” (International Journal of Molecular Sciences, 2021)

Assays:
rats = experiment: Elevated plus-maze (EPM) test; assay type: in vivo, rat; details: for Open Arms % of entries / Open Arms % of time / Open Arms Distance / Open Arms Entries / Open Arms Time: mean ± SEM
Description: The testing procedure was based on a method described by. Plus-maze apparatus (an automated device produced by Campden Instruments Ltd. (Leicestershire, UK) made of durable, high density, non-porous black plastic, elevated to a height of 50 cm, consisted of two open arms (50 × 10 cm) and two closed arms (50 × 10 cm, and 30 cm high walls), arranged so that the two arms of each type were opposite each other. The floor of the plus-maze was made of infrared transparent material what means that there are no visible sensors. Plus-maze apparatus was connected to PC software by control chassis. The experiments were conducted in a darkened room, only the center of the maze was illuminated with low-intensity light (30 lux measured on the maze level). Each rat was gently placed in the center of the plus-maze, facing one of the closed arms, immediately after a 5-min adaptation period in a plastic black box (60 × 60 × 35 cm), to increase the overall activity in the EPM. During a 5-min test period, automated Motor Monitor System recorded the number of entries into the closed and open arms and the time spent in either type of arms. The device counted an effective arm-entry when the four paws of a rat were into any arm. The maze was thoroughly cleaned after each trial. The EPM test is an “unconditional” anxiety-like test based on rodents’ natural aversion to heights and open space.

5-HT1AR = target: T1, 5-HT1AR (Homo sapiens, UniProt P08908); experiment: Radioligand binding assay (RBA), 5-HT1AR; details: ± SD; displacement of [3H]-8-OHDPAT, HEK-293 cells; read-out: Ki 5-HT1A (converted)
T1 construct: expressed in transfected cells; host or cells: HEK-293
T1 sequence (P08908 1-422): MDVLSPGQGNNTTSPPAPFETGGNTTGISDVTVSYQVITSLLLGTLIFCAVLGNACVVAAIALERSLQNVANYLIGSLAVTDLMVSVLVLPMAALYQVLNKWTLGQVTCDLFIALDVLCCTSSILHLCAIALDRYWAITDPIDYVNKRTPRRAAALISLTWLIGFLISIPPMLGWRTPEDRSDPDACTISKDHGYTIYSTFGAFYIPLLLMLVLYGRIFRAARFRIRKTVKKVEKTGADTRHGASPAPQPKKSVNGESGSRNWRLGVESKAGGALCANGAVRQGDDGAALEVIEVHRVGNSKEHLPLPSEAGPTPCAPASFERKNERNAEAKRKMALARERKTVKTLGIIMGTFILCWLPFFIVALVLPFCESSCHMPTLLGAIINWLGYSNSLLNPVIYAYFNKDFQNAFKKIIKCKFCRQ
Protocol: The cells used in the radioligand binding assays receptor 5-HT1A were stably expressed in HEK-293 cells. Transfections were performed with the use of Lipofectamine 2000. The binding procedure was accomplished via the displacement of 2.5 nM [^3H]-8-OHDPAT (135.2 Ci/mmol) for 5-HT1AR. Each compound was tested in triplicate in seven to eight different concentrations (10^−11 to 10^−4 M). The inhibition constants (Ki) were calculated using the Cheng–Prusoff equation [45] and the results are expressed as the mean of at least two independent experiments.

[1] = Metabolic stability in rat liver microsomes; assay type: in vitro ADME
Protocol: The tested 5-HT6R ligands (50 µM) were incubated in the presence of RLMs (1 mg/mL) in 10 mM Tris–HCl buffer (37 °C). The LC/MS analyses with additional MS ion fragmentation of the products and substrates were performed to determine the most probable structures of 5-HT6R ligands’ metabolites. LC/MS Waters ACQUITY™ TQD system with the TQ Detector (Waters, Milford, CT, USA).

dopaminergic receptor D2 = details: ± SD; cited from earlier work
[2] = tested on: MK-801-induced memory deficits in rats; experiment: Novel object recognition (NOR) test, MK-801-induced memory impairment; assay type: in vivo, rat; details: for Total Exploratory Time in T2 Session: mean ± SEM; for minimal effective dose in NOR test: i.p., reversal of MK-801-induced memory impairment
Protocol: Five days before the experiment, the rats were transferred to the laboratory, labelled and, thereafter, left to acclimate to the new environment. The animals were handling every five days before experiments to minimize the stress reaction. The protocol was adapted from the original work. The test session comprising of two trials separated by an inter-trial interval (ITI) of 1 h was carried out after 2 days of the training session. During the first trial (familiarization, T1) two identical objects (A1 and A2) were presented in the opposite corners of the open field, approximately 10 cm from the walls. During the second trial (recognition, T2) one of the A objects was replaced by a novel object B, so that the animals were presented with the A = familiar and B = novel objects. Both trials lasted for 3 min and the animals were returned to their home cages after T1.
The objects used were the metal Coca-Cola cans and the glass jars filled with sand. […] The sequence of presentations and the location of the objects were randomly assigned to each rat. After each measurement, the floor was cleaned and dried.
The animals explored the objects by looking, licking, sniffing or touching the object but not when leaning against, standing or sitting on the object. Any rat exploring the two objects for less than 5 s within 3 min of T1 or T2 was eliminated from the study. The exploration time of the objects was measured by a blind experimenter. Based on the exploration time (E) of two objects during T2, the discrimination index (DI) was calculated according to the formula: DI = (EB − EA)/(EA + […]). Using this metric, scores approaching zero reflects no preference while positive values reflect a preference for the novel object and negative numbers reflect a preference for the familiar.
MK-801, used to attenuate learning, was administered at the dose of 0.1 mg/kg (i.p.) 30 min before the familiarization phase (T1), while investigated compounds were given 60 min before T1 session. In such scheme of experiment we could observe the impact of investigated compounds on the one type of rats’ memory—episodic memory and one phase of memory process—[…].
The total exploration time in T2 was used to express the influence of the treatment on the exploratory activity of the animals.

5-HT7R = details: ± SD; read-out: Ki 5-HT7 (converted); cited from earlier work
[3] = estimated from MS spectra supported by in silico data
[4] = 0.3 mg/kg i.p. + MK-801 0.1 mg/kg
[5] = 1 mg/kg i.p. + MK-801 0.1 mg/kg
[6] = 3 mg/kg i.p. + MK-801 0.1 mg/kg

SMILES | Open Arms % of entries (rats; 0.3 mg/kg i.p.) [%] | Open Arms % of time (rats; 0.3 mg/kg i.p.) [%] | Open Arms Distance (rats; 0.3 mg/kg i.p.) [cm] | Open Arms Entries (rats; 0.3 mg/kg i.p.) | Open Arms Time (rats; 0.3 mg/kg i.p.) [s] | Open Arms % of entries (rats; 1 mg/kg i.p.) [%] | Open Arms % of time (rats; 1 mg/kg i.p.) [%] | Open Arms Distance (rats; 1 mg/kg i.p.) [cm] | Open Arms Entries (rats; 1 mg/kg i.p.) | Open Arms Time (rats; 1 mg/kg i.p.) [s] | Open Arms % of entries (rats; 3 mg/kg i.p.) [%] | Open Arms % of time (rats; 3 mg/kg i.p.) [%] | Open Arms Distance (rats; 3 mg/kg i.p.) [cm] | Open Arms Entries (rats; 3 mg/kg i.p.) | Open Arms Time (rats; 3 mg/kg i.p.) [s] | Ki (5-HT1AR) [µM] | parent compound remaining in the reaction mixture (Area%) ([1]; RLMs, 120 min incubation) [%] | Metabolic Pathway, metabolite M1 [1, 3] | Metabolic Pathway, metabolite M2 [1, 3] | Ki (dopaminergic receptor D2) [µM] | further results
CCC(Oc1cccc(Cl)c1Cl)c1nc(N)nc(N2CCN(C)CC2)n1 (racemic) [Compound 2, (RS)-4-[1-(2,3-dichlorophenoxy)propyl]-6-(4-methylpiperazin-1-yl)-1,3,5-triazin-2-amine] | 23.97 ± 4.97 | 14.85 ± 3.30 | 423 ± 87 | 6.50 ± 1.60 | 36.85 ± 8.90 | 26.53 ± 3.69 | 10.10 ± 1.20 | 279 ± 45 | 5.86 ± 0.90 | 24.75 ± 3.19 | 41.89 ± 3.37 | 30.00 ± 3.60 | 914 ± 126 | 13.00 ± 2.30 | 72.23 ± 7.30 | 0.521 | 80 | hydroxylation | hydroxylation | 0.421 | increase of distance travelled in the open arms vs vehicle (rats; 3 mg/kg i.p.): 134%; increase of number of open-arm entries vs vehicle (rats; 3 mg/kg i.p.): 160%; increase of percentage of time spent in open arms vs vehicle (rats; 3 mg/kg i.p.): 137%; increase of time spent in the open arms vs vehicle (rats; 3 mg/kg i.p.): 120%; increase of percentage of entries into open arms vs vehicle (rats; 3 mg/kg i.p., not significant): 68%; dose with anxiolytic-like activity in EPM test (rats; i.p.): 3 mg/kg; parent structure biotransformed ([1]; RLMs, 120 min incubation): 20%; Metabolic Pathway, metabolite M3 [1, 3]: demethylation; Total Exploratory Time in T2 Session [2, 4]: 52.67 ± 5.37 s; Total Exploratory Time in T2 Session [2, 5]: 40.33 ± 6.66 s; Total Exploratory Time in T2 Session [2, 6]: 42.88 ± 2.10 F(4,27) = 3.5450; p < 0.05 s; minimal effective dose in NOR test [2]: 0.3 mg/kg; Ki (5-HT7R): 5.2 µM
CCC(Oc1ccccc1)c1nc(N)nc(N2CCN(C)CC2)n1 (racemic) [Compound 3, (RS)-4-(4-methylpiperazin-1-yl)-6-(1-phenoxypropyl)-1,3,5-triazin-2-amine] | 28.54 ± 6.70 | 9.84 ± 1.50 | 340 ± 59 | 5.28 ± 0.42 | 24.27 ± 3.41 | 33.64 ± 2.70 | 18.30 ± 4.10 | 646 ± 145 | 8.43 ± 1.36 | 44.24 ± 9.71 | 24.39 ± 7.60 | 7.03 ± 2.00 | 231 ± 87 | 4.17 ± 1.10 | 19.00 ± 5.50 | 3.64 | 95.7 | decomposition and triple hydroxylation | hydroxylation | 1.51 | anxiolytic-like activity in EPM test (rats; i.p., 60 min before test): did not show anxiolytic-like activity; Total Exploratory Time in T2 Session ([2]; 0.1 mg/kg i.p. + MK-801 0.1 mg/kg): 47.33 ± 4.79 s; Total Exploratory Time in T2 Session [2, 4]: 38.14 ± 4.18 s; Total Exploratory Time in T2 Session [2, 5]: 35.57 ± 3.76 s; Total Exploratory Time in T2 Session [2, 6]: 34.14 ± 1.22; F(5,47) = 1.9394; NS s; minimal effective dose in NOR test [2]: 0.1 mg/kg; Ki (5-HT7R): 19.9 µM
